US6001852A (priority 1996, dated 1999)

What was measured:
[1] = Dissolution of clioquinol in n-decane and extraction into PBS pH 7.4; format: physicochemical
Method: The resolubilization of amyloid aggregates by clioquinol was studied. […] The undissolved aterial was allowed to settle. […] 100 ml of the (light yellow) supernatant was agitated together with 100 ml of PBS pH 7.4 and the phases allowed to separate. The PBS (lower phase) was collected and filtered to remove the residue which formed at the phase interface upon extraction with the organic solvent.

[2] = test system: Aβ; assay: Solubilization of Aβ from Alzheimer's disease brain homogenates (Western blot, mAb W02); format: biochemical, human; settings: frontal lobe neocortex homogenized in clioquinol/PBS at 100%, 10% and 1% (100%=800 nM)
Method: Brain specimens were obtained for which a histopathological diagnosis of Alzheimer's disease was confirmed.
The homogenates were centrifuged at 150,000 xg for thirty minutes and the supernatants collected and held on ice (fraction "S"). The pellets were subjected to an identical homogenization and centrifugation regime and the resulting supernatants again collected (fraction "P")
1 ml of each supernatant was treated with 200 μl of ice cold 10% TCA to precipitate total protein including Aβ. The resulting pellet was washed once with 100% ethanol and resuspended in 100 μl of TBS (tris 20 mM, NaCl 150 mM, pH 7.4).
7.5 μl of sample (S or P) was boiled for 5 min. with an equal volume of tris-tricine sample buffer containing 4% SDS and loaded onto a Novex pre-cast 10-20% tris-tricine gel followed by Western transfer onto nitrocellulose. […] The sensitivity of the detection system is 5-10 pg.
To validate the TCA precipitation for Aβ 1 μg of synthetic Aβ 1-40 was added to 1 ml of PBS containing 10% BSA and the solution was treated as above.

[3] = test system: zinc-aggregated Aβ; assay: Resolubilization of zinc-aggregated Aβ in TBS pH 7.4; format: biochemical; settings: clioquinol added after 30 μM zinc (43% in solution with zinc alone, 95% before zinc)
Method: The ability of clioquinol to resolubilize zinc-aggregated Aβ was assessed. A […] solution of Aβ in TBS at a pH of 7.4 was prepared. 95% of the Aβ was maintained in a soluble state.

[4] = test system: zinc precipitated Aβ; assay: Washing of zinc-aggregated synthetic Aβ on nylon membrane (anti Aβ mAb 6E10, ECL-film); format: biochemical; settings: 2 μM in TBS, 200 μl wash; 10 ng Aβ aggregated with 25 μM ZnCl; 100% for TBS alone
Method: Samples of 10 ng synthetic Aβ were placed in microtitre wells and caused to aggregate by the addition of 25 μM ZnCl. The aggregates were then transferred to a 0.2 μm nylon membrane by filtration. […] The membrane was fixed, probed with the anti Aβ monoclonal antibody 6E10 and developed for exposure to ECL-film. The transmittance of the ECL-film was measured and the relative signal strength calculated based on 100% for TBS alone.

[5] = 1H NMR study of the interaction of vitamin B12 with clioquinol glucuronide; format: binding; settings: 2.6 mM vitamin B12 and 10 mM clioquinol glucuronide, buffered water pH 6.5, 20° C.
Method: Three different solutions were prepared and their ^1 H NMR spectra were recorded in a DRX 400 MHz spectrophotometer at 20° C. Solution a) contained free vitamin B12 (hydroxycobalamin) in a concentration of 2.6 mM.
In FIG. 1 the spectra of the three solutions are presented for the aromatic region (5.5-9.8 ppm). The differences are quite small but obvious in the expansion shown of FIG. 2 and FIG. 3, respectively.

Oc1c(I)cc(Cl)c2cccnc12 [clioquinol, 5-chloro-7-iodo-8 hydroxyquinoline]
Share of clioquinol dissolved in n-decane ([1]; 5.3 g suspended in 200 ml n-decane): 2%
Concentration of clioquinol in the PBS ([1]; PBS pH 7.4 extract of decane supernatant, 1:1, assuming 2% dissolved and partitioning coefficient 1/1750): 800 nM
Solubilization of Aβ [2]: effective in promoting the solubilization of Aβ
Soluble Aβ [3]: 70%

O=C(O)CN(CCN(CC(=O)O)CC(=O)O)CC(=O)O [EDTA]
Relative signal strength (Aβ remaining on membrane) [4]: 66%

COC(=O)[C@H]1OC(Oc2c(I)cc(Cl)c3cccnc23)[C@H](OC(C)=O)[C@@H](OC(C)=O)[C@@H]1OC(C)=O (stereo partly drawn) [methyl (5-chloro-7-iodo-quinolyl-2',3',4'-tri-o-acetyl-glucopyranosid)uronate]
Interaction with vitamin B12 (shifted 1H NMR resonances) [5]: interaction between clioquinol glucuronide and vitamin B12
